Consider two compounds from patent US20230023092A1, “TREATMENT OF DEPRESSION AND OTHER VARIOUS DISORDERS WITH PSILOCYBIN” (COMPASS […], priority 2019, published 2023).

One series relates to subjects. Particulars: 20 mg escitalopram; cited from earlier work.
For series [1] the following is noted: post-ingestion; cited from earlier work.
The next series has as its system Wistar-Kyoto (WKY) rats. The series can be described thus: Sleep-wake scoring (EEG/EMG: wake, NREM, REM) in rat model of TRD. It counts as in vivo. The conditions noted are these: 5 and 10 mg/kg, s.c. An excerpt:
Since WKY rats show decreased sensitivity to conventional monoamine-based antidepressant treatment, they are used as a model of TRD.
Male (WKY) rats (200-250 g) were implanted with electroencephalography (EEG) and electromyography (EMG) electrodes and telemetry transmitters under general anesthesia (2-5% isoflurane in Oxygen). A telemetry transmitter (HD-502, Data Sciences International) was placed in the peritoneal cavity, and the wires of the transmitter were passed through the muscle wall and then sub-dermally to the scalp to act as EEG/EMG electrodes. Two bore holes were made in the skull (Fronto-parietal coordinates; Bregma +2 mm anterior, midline +1.0 mm lateral and Lambda 0 mm, +1.5 mm lateral). The positive EEG electrode was attached to the anterior bore hole and the negative EEG electrode to the posterior bore hole. Both electrodes were secured in place using a suitable adhesive agent (Cyanoacrylate gel, RS components). […]
Animals were maintained on a 12/12 hour light dark cycle. On study days, the animals were placed in recording boxes and EEG/EMG, locomotor activity, as well as body temperature were recorded for 0.5 hours before and 24 hours after each dosing. […]
The subsequent EEG/EMG recordings were automatically scored as wake, non-REM (NREM) sleep, or REM sleep in 10 second epochs using SleepSign (Kissei Comtec, Japan). […]

Turning to `CN(C)CCC[C@@]1(c2ccc(F)cc2)OCc2cc(C#N)ccc21` [escitalopram], the “Frequency of common side effects: agitation or restlessness; diarrhea; difficulty sleeping; drowsiness; dry mouth; headache; nausea; sexual difficulties; dizziness; sweating” value with subjects is given as “Common (~10% at 20 mg escitalopram)”. Besides, in series [1], the “Time to peak plasma concentration” value was 3 to 4 h.
For `CNC1(c2ccccc2Cl)CCCCC1=O` (stereo not drawn) [ketamine], the “Amount of REM sleep” value with Wistar-Kyoto (WKY) rats was “decreased the amount of REM sleep in a dose-dependent manner”.
